# According to patent US8853188B2, “Compositions and methods for cancer treatment” (Women and Infants Hospital of RI, Inc., priority 2005, dated 2014):
# Key:
# Format in all cases: cell-based
# panel of cancer cells = test: Antiproliferative and cytotoxic activity on a panel of cancer cells (MTS, 96 well plates)
# Text: A panel of cancer cells is used to evaluate the antiproliferative and cytotoxic activities of B3CD and related analogs. The cells include colon (Colo), breast (MCF-7 and MDA-MB-231), lung (A549), prostate PC3 and LNCaP), melanoma (SK-MEL-31), renal (Caki-1), ovarian (OVCAR-3), bladder (T24), pancreatic (BxPC-3), hepatocarcinoma (Hep3B), neuroblastoma (SH-SY5Y), glioblastoma (SNB-19), medulloblastoma (D283 Med), skin (LS123), squamous cell carcinoma (Scc-15), acute promyelocytic leukemia (APL), myeloblastic (HL-60) and myelomonocytic (U937).
# The anticancer activity testing will be carried out by high throughput screening. The cancer cells will be cultured in 96 well plates and treated with the library. B3CD has been tested in this system and was effective at a 200 nM dose. For general screening, 2-200 nM doses will be used. Cells will be treated with the compounds for 12, 24, 48 and 72 hours. A 96 well plate format allows testing a large number of compounds simultaneously. An MTS based colorimetric method of evaluation of proliferation will be utilized, which is widely used in cancer drug discovery. The fingerprint of profiled drugs using 60 cell-line screening program by NCl using COMPARE algorithm (Paull K D, Shoemaker R H, Hodes L, Monks A, Scudiero D A, Rubinstein L, Plowman J, Boyd M R. Display and analysis of patterns of differential activity of drugs against human tumor cell lines: development of mean graph and COMPARE algorithm. J Natl Cancer Inst 1989; 81:1088).
# Materials and methods. Proliferation was measured by MTS and BrdU incorporation assays. Apoptosis was assessed by DNA fragmentation, Cell Death Detection ELISA and caspase-3-assays. Effect of B3CD on TrkB signaling by BDNF was assessed by Western Blot analysis of AKT and ERK phosphorylation. The effect on angiogenesis was determined by chick chorioallantoic membrane (CAM) assay and aortic ring assay.
# SH-SY5Y cells = test: DNA laddering by agarose gel electrophoresis; conditions: 250 nM, 48 hours
# Description: (§1) Initially, during regular microscopic examination of the B3CD treated cells, the cells were condensing and floating in the culture dishes showing indications of apoptosis. In order to determine apoptosis, SK-N-SH and SH-SY5Y cells were treated with 250 nM B3CD for 48 hours. DNA was isolated and analyzed by agarose gel electrophoresis.
# SK-N-SH cells = test: DNA laddering by agarose gel electrophoresis; conditions: 250 nM, 48 hours
# Description: as §1
smiles,measurement,setting,value
"C=C1CC[C@H](OC(=O)CBr)C/C1=C/C=C1\CCC[C@]2(C)[C@@H]([C@H](C)CCCC(C)(C)O)CC[C@@H]12 [B3CD, bromoacetic acid 3-{2-[1-(5-hydroxy-1,5-dimethyl-hexyl)-7a-methyl-octahydro-inden-4-ylidene]-ethylidene}-4-methylene-cyclohexyl ester]",anticancer activity in high throughput screening system,panel of cancer cells; 200 nM dose,effective
same,cytotoxicity,panel of cancer cells; preliminary studies,exhibits cytotoxicity
same,DNA laddering,SH-SY5Y cells,distinct DNA laddering pattern characteristic of apoptosis
same,DNA laddering,SK-N-SH cells,distinct DNA laddering pattern characteristic of apoptosis
